In PubChem BioAssay (NCI):
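Each compound was tested at five concentrations against cells in 96-well plates for 48 hours. GI50: concentration for 50% inhibition of growth. TGI denotes the concentration required for complete inhibition of growth.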

What was measured:
Test in all cases: NCI tumour cell line growth inhibition, 48 h
SN12C renal = test system: SN12C renal
SK-MEL-5 melanoma = test system: SK-MEL-5 melanoma
DU-145 prostate = test system: DU-145 prostate
HT29 colon = test system: HT29 colon
BT-549 breast = test system: BT-549 breast
TK-10 renal = test system: TK-10 renal
UACC-62 melanoma = test system: UACC-62 melanoma
OVCAR-4 ovarian = test system: OVCAR-4 ovarian
NCI-H23 lung = test system: NCI-H23 lung
SF-539 CNS = test system: SF-539 CNS
IGROV1 ovarian = test system: IGROV1 ovarian
NCI-H460 lung = test system: NCI-H460 lung
SK-OV-3 ovarian = test system: SK-OV-3 ovarian
OVCAR-3 ovarian = test system: OVCAR-3 ovarian
HCC-2998 colon = test system: HCC-2998 colon
MOLT-4 leukemia = test system: MOLT-4 leukemia
UACC-257 melanoma = test system: UACC-257 melanoma
PC-3 prostate = test system: PC-3 prostate
KM12 colon = test system: KM12 colon
SF-268 CNS = test system: SF-268 CNS
MDA-MB-435 = test system: MDA-MB-435
K-562 leukemia = test system: K-562 leukemia
HOP-92 NSCLC = test system: HOP-92 NSCLC
UO-31 renal = test system: UO-31 renal
T-47D breast = test system: T-47D breast
SK-MEL-28 melanoma = test system: SK-MEL-28 melanoma
OVCAR-5 ovarian = test system: OVCAR-5 ovarian
A498 renal = test system: A498 renal
M14 melanoma = test system: M14 melanoma
HS 578T breast = test system: HS 578T breast
RXF 393 renal = test system: RXF 393 renal
MDA-MB-231 breast = test system: MDA-MB-231 breast
HCT-116 colon = test system: HCT-116 colon
NCI-H522 lung = test system: NCI-H522 lung
MCF7 breast = test system: MCF7 breast
786-0 renal = test system: 786-0 renal
HCT-15 colon = test system: HCT-15 colon
A549 NSCLC = test system: A549 NSCLC
U251 CNS = test system: U251 CNS
SK-MEL-2 melanoma = test system: SK-MEL-2 melanoma
NCI/ADR-RES ovarian = test system: NCI/ADR-RES ovarian
COLO 205 colon = test system: COLO 205 colon
NCI-H226 lung = test system: NCI-H226 lung
MALME-3M melanoma = test system: MALME-3M melanoma
HOP-62 NSCLC = test system: HOP-62 NSCLC
LOX IMVI melanoma = test system: LOX IMVI melanoma
CAKI-1 renal = test system: CAKI-1 renal
OVCAR-8 ovarian = test system: OVCAR-8 ovarian
CCRF-CEM leukemia = test system: CCRF-CEM leukemia
RPMI-8226 leukemia = test system: RPMI-8226 leukemia
SW-620 colon = test system: SW-620 colon
ACHN renal = test system: ACHN renal
HL-60(TB) leukemia = test system: HL-60(TB) leukemia
SNB-19 CNS = test system: SNB-19 CNS
EKVX NSCLC = test system: EKVX NSCLC
SF-295 CNS = test system: SF-295 CNS
SNB-75 CNS = test system: SNB-75 CNS
SR leukemia = test system: SR leukemia

C=C1C(=O)O[C@H]2[C@H]1CC/C(COC(=O)NCc1ccc(Cn3c(=O)sn(CCCI)c3=O)cc1)=C\CC[C@@]1(C)O[C@@H]21
GI50 (SN12C renal): 1.57 µM | TGI (SN12C renal): 3.62 µM | GI50 (SK-MEL-5 melanoma): 1.91 µM | TGI (SK-MEL-5 melanoma): 3.55 µM | GI50 (DU-145 prostate): 1.74 µM | TGI (DU-145 prostate): 3.16 µM | GI50 (HT29 colon): 1.74 µM | TGI (HT29 colon): 3.31 µM | GI50 (BT-549 breast): 1.37 µM | TGI (BT-549 breast): 2.84 µM | GI50 (TK-10 renal): 1.71 µM | TGI (TK-10 renal): 3.35 µM | GI50 (UACC-62 melanoma): 1.41 µM | TGI (UACC-62 melanoma): 2.88 µM | GI50 (OVCAR-4 ovarian): 1.46 µM | TGI (OVCAR-4 ovarian): 3.11 µM | GI50 (NCI-H23 lung): 2.11 µM | TGI (NCI-H23 lung): 4.91 µM | GI50 (SF-539 CNS): 1.71 µM | TGI (SF-539 CNS): 3.34 µM | GI50 (IGROV1 ovarian): 1.75 µM | TGI (IGROV1 ovarian): 3.84 µM | GI50 (NCI-H460 lung): 3.2 µM | TGI (NCI-H460 lung): 10.3 µM | GI50 (SK-OV-3 ovarian): 13.6 µM | TGI (SK-OV-3 ovarian): 28.3 µM | GI50 (OVCAR-3 ovarian): 1.19 µM | TGI (OVCAR-3 ovarian): 2.43 µM | GI50 (HCC-2998 colon): 1.96 µM | TGI (HCC-2998 colon): 3.71 µM | GI50 (MOLT-4 leukemia): 0.294 µM | TGI (MOLT-4 leukemia): 3.19 µM | GI50 (UACC-257 melanoma): 1.79 µM | TGI (UACC-257 melanoma): 3.67 µM | GI50 (PC-3 prostate): 1.94 µM | TGI (PC-3 prostate): 4.4 µM | GI50 (KM12 colon): 7.98 µM | TGI (KM12 colon): 24.8 µM | GI50 (SF-268 CNS): 2.54 µM | TGI (SF-268 CNS): 7.41 µM | GI50 (MDA-MB-435): 1.68 µM | TGI (MDA-MB-435): 3.3 µM | GI50 (K-562 leukemia): 0.342 µM | TGI (K-562 leukemia): > 100 µM | GI50 (HOP-92 NSCLC): 1.22 µM | TGI (HOP-92 NSCLC): 2.83 µM | GI50 (UO-31 renal): 1.52 µM | TGI (UO-31 renal): 2.94 µM | GI50 (T-47D breast): 1.79 µM | TGI (T-47D breast): 3.84 µM | GI50 (SK-MEL-28 melanoma): 1.92 µM | TGI (SK-MEL-28 melanoma): 3.79 µM | GI50 (OVCAR-5 ovarian): 1.85 µM | TGI (OVCAR-5 ovarian): 4.17 µM | GI50 (A498 renal): 4.85 µM | TGI (A498 renal): 16.8 µM | GI50 (M14 melanoma): 1.74 µM | TGI (M14 melanoma): 4.69 µM | GI50 (HS 578T breast): 3.17 µM | TGI (HS 578T breast): 14.5 µM | GI50 (RXF 393 renal): 1.52 µM | TGI (RXF 393 renal): 2.95 µM | GI50 (MDA-MB-231 breast): 1.75 µM | TGI (MDA-MB-231 breast): 3.56 µM | GI50 (HCT-116 colon): 1.05 µM | TGI (HCT-116 colon): 2.57 µM | GI50 (NCI-H522 lung): 1.07 µM | TGI (NCI-H522 lung): 2.39 µM | GI50 (MCF7 breast): 1.41 µM | TGI (MCF7 breast): 3.24 µM | GI50 (786-0 renal): 1.68 µM | TGI (786-0 renal): 3.71 µM | GI50 (HCT-15 colon): 1.89 µM | TGI (HCT-15 colon): 3.68 µM | GI50 (A549 NSCLC): 11.2 µM | TGI (A549 NSCLC): 25.3 µM | GI50 (U251 CNS): 1.75 µM | TGI (U251 CNS): 3.68 µM | GI50 (SK-MEL-2 melanoma): 2.42 µM | TGI (SK-MEL-2 melanoma): 7.19 µM | GI50 (NCI/ADR-RES ovarian): 28.1 µM | TGI (NCI/ADR-RES ovarian): > 100 µM | GI50 (COLO 205 colon): 1.95 µM | TGI (COLO 205 colon): 3.66 µM | GI50 (NCI-H226 lung): 14.1 µM | TGI (NCI-H226 lung): 37.7 µM | GI50 (MALME-3M melanoma): 1.39 µM | TGI (MALME-3M melanoma): 3.21 µM | GI50 (HOP-62 NSCLC): 13.5 µM | TGI (HOP-62 NSCLC): 27.4 µM | GI50 (LOX IMVI melanoma): 1.4 µM | TGI (LOX IMVI melanoma): 2.81 µM | GI50 (CAKI-1 renal): 1.7 µM | TGI (CAKI-1 renal): 3.29 µM | GI50 (OVCAR-8 ovarian): 3.04 µM | TGI (OVCAR-8 ovarian): 9.87 µM | GI50 (CCRF-CEM leukemia): 0.314 µM | TGI (CCRF-CEM leukemia): 2.18 µM | GI50 (RPMI-8226 leukemia): 0.899 µM | TGI (RPMI-8226 leukemia): 3.57 µM | GI50 (SW-620 colon): 1.4 µM | TGI (SW-620 colon): 3.17 µM | GI50 (ACHN renal): 1.7 µM | TGI (ACHN renal): 3.19 µM | GI50 (HL-60(TB) leukemia): 0.307 µM | TGI (HL-60(TB) leukemia): 2.71 µM | GI50 (SNB-19 CNS): 3.12 µM | TGI (SNB-19 CNS): 13.8 µM | GI50 (EKVX NSCLC): 2.09 µM | TGI (EKVX NSCLC): 6.77 µM | GI50 (SF-295 CNS): 14.4 µM | TGI (SF-295 CNS): 30.8 µM

O=C(O)c1ccc2nc(-c3ccccn3)c(-c3ccccn3)nc2c1
TGI (SNB-75 CNS): > 100 µM | TGI (SK-MEL-5 melanoma): > 100 µM | TGI (DU-145 prostate): > 100 µM | TGI (HT29 colon): > 100 µM | TGI (BT-549 breast): > 100 µM | TGI (TK-10 renal): > 100 µM | TGI (UACC-62 melanoma): > 100 µM | TGI (OVCAR-4 ovarian): > 100 µM | TGI (NCI-H23 lung): > 100 µM | TGI (SF-539 CNS): > 100 µM | TGI (IGROV1 ovarian): > 100 µM | TGI (NCI-H460 lung): > 100 µM | TGI (SK-OV-3 ovarian): > 100 µM | TGI (HCC-2998 colon): > 100 µM | TGI (MOLT-4 leukemia): > 100 µM | TGI (UACC-257 melanoma): > 100 µM | TGI (PC-3 prostate): > 100 µM | TGI (KM12 colon): > 100 µM | TGI (SF-268 CNS): > 100 µM | TGI (MDA-MB-435): > 100 µM | TGI (K-562 leukemia): > 100 µM | TGI (HOP-92 NSCLC): > 100 µM | TGI (UO-31 renal): > 100 µM | TGI (T-47D breast): > 100 µM | TGI (SK-MEL-28 melanoma): > 100 µM | TGI (A498 renal): > 100 µM | TGI (M14 melanoma): > 100 µM | TGI (HS 578T breast): > 100 µM | TGI (RXF 393 renal): > 100 µM | TGI (MDA-MB-231 breast): > 100 µM | TGI (HCT-116 colon): > 100 µM | TGI (MCF7 breast): > 100 µM | TGI (786-0 renal): > 100 µM | TGI (HCT-15 colon): > 100 µM | TGI (U251 CNS): > 100 µM | TGI (SK-MEL-2 melanoma): > 100 µM | TGI (NCI/ADR-RES ovarian): > 100 µM | TGI (COLO 205 colon): > 100 µM | TGI (SR leukemia): > 100 µM | TGI (NCI-H226 lung): > 100 µM | TGI (HOP-62 NSCLC): > 100 µM | TGI (LOX IMVI melanoma): > 100 µM | TGI (CAKI-1 renal): > 100 µM | TGI (OVCAR-8 ovarian): > 100 µM | TGI (CCRF-CEM leukemia): > 100 µM | TGI (RPMI-8226 leukemia): > 100 µM | TGI (SW-620 colon): > 100 µM | TGI (ACHN renal): > 100 µM | TGI (HL-60(TB) leukemia): > 100 µM | TGI (SNB-19 CNS): > 100 µM | TGI (EKVX NSCLC): > 100 µM | TGI (SF-295 CNS): > 100 µM
